Results on 13 compounds are retold here after patent US8227613B2, “Heteroaryl carboxamide derivatives” (Hoffmann-La Roche Inc., priority 2008, dated 2012).

In this experiment the target is T1, human chemokine receptor 2 isoform B (CCR2B) (Homo sapiens, UniProt P41597).
T1 construct: host or cells: CHO-K1 (CHOK1-CCR2B-A5)
T1 sequence (P41597 1-360 isoform P41597-2): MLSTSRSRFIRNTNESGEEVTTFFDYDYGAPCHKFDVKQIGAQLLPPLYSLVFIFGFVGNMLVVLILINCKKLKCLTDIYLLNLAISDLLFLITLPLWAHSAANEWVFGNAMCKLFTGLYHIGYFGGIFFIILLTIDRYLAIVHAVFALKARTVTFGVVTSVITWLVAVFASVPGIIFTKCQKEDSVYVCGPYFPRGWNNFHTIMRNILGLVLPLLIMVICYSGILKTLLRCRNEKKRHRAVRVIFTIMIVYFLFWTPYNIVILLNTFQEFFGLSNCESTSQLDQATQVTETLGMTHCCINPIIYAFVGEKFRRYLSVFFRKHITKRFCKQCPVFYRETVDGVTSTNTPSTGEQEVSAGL
The experiment in a line: Calcium mobilization assay (FLIPR, MCP-1 stimulated CHOK1-CCR2B-A5 cells). It is filed as cell-based. The conditions noted are these: 20 nM MCP-1, antagonist activity, read-out: IC50 (inhibitor concentration required for 50% inhibition of specific calcium increases). The protocol:
Calcium Mobilization Assay
CHOK1-CCR2B-A5 cells (from Euroscreen) stably overexpressing the human chemokine receptor 2 isoform B were cultured in Nutrient Hams F12 medium supplemented with 5% FBS, 100 U/ml penicillin, 100 μg/ml streptomycin, 400 μg/ml G418 and 5 μg/ml puromycin.
For the assay cells were grown overnight in 384-well black clear flat bottom polystyrene plates (Costar) at 37° C. at 5% CO2. After washing with DMEM, 20 mM Hepes, 2.5 mM probenecid, 0.1% BSA (DMEM assay buffer) cells were loaded with 4 μM Fluo-4 in the same DMEM assay buffer for 2 hours at 30° C. Excess dye was removed and cells were washed with DMEM assay buffer. 384-well compound plates were prepared with DMEM assay buffer/0.5% DMSO with or without various concentrations of test compounds. Usually compounds were tested for agonist and antagonist activity.
Test compounds were added to the assay plate and agonist activity was monitored as fluorescence for 80 seconds with a FLIPR (488 nm excitation; 510-570 nm emission; Molecular Devices). After 20-30 min. of incubation at 30° C., 20 nM MCP-1 (R&D; Roche) was added and fluorescence was monitored again for 80 seconds. Increases in intracellular calcium are reported as maximum fluorescence after agonist exposure minus basal fluorescence before exposure. Antagonist activity is indicated as inhibitor concentration required for 50% inhibition of specific calcium increases.
In general terms: Calcium flux is commonly read through the fluorescence of an indicator in the cells.
As to `Cc1cc(-c2cccc(C(F)(F)F)c2)c(C(=O)NCCO)nc1C(=O)N1CCC(N2CCCC2)CC1` [Example 55, 5-Methyl-6-(4-pyrrolidin-1-yl-piperidine-1-carbonyl)-3-(3-trifluoromethyl-phenyl)-pyridine-2-carboxylic acid (2-hydroxy-ethyl)-amide], the IC50 is 130 nM. To `Cc1cc(-c2cccc(C(F)(F)F)c2)c(C(=O)Nc2cccnc2)nc1C(=O)N1CCC(N2CCCC2)CC1` [Example 56, 5-Methyl-6-(4-pyrrolidin-1-yl-piperidine-1-carbonyl)-3-(3-trifluoromethyl-phenyl)-pyridine-2-carboxylic acid pyridin-3-ylamide] belongs 13 nM; to `Cc1cc(-c2cccc(C(F)(F)F)c2)c(C(=O)NC2CCN(C(=O)OC(C)(C)C)CC2)nc1C(=O)N1CCC(N2CCCC2)CC1` [Example 57, 4-{[5-Methyl-6-(4-pyrrolidin-1-yl-piperidine-1-carbonyl)-3-(3-trifluoromethyl-phenyl)-pyridine-2-carbonyl]-amino}-piperidine-1-carboxylic acid tert-butyl ester], 210 nM; to `CNC(=O)c1nc(C(=O)N2CCC(N3CCCC3)CC2)c(C)cc1-c1cccc(C(F)(F)F)c1` [Example 58, 5-Methyl-6-(4-pyrrolidin-1-yl-piperidine-1-carbonyl)-3-(3-trifluoromethyl-phenyl)-pyridine-2-carboxylic acid methylamide], 190 nM. As to `Cc1cc(-c2cccc(C(F)(F)F)c2)c(C(=O)N2CCN(C(=O)OC(C)(C)C)CC2)nc1C(=O)N1CCC(N2CCCC2)CC1` [Example 59, 4-[5-Methyl-6-(4-pyrrolidin-1-yl-piperidine-1-carbonyl)-3-(3-trifluoromethyl-phenyl)-pyridine-2-carbonyl]-piperazine-1-carboxylic acid tert-butyl ester], the IC50 turned out to be 490 nM. For `Cc1cc(-c2cccc(C(F)(F)F)c2)c(C(=O)NC2CCNCC2)nc1C(=O)N1CCC(N2CCCC2)CC1` [Example 60, 5-Methyl-6-(4-pyrrolidin-1-yl-piperidine-1-carbonyl)-3-(3-trifluoromethyl-phenyl)-pyridine-2-carboxylic acid piperidin-4-ylamide] the value was 290 nM; for `Cc1cc(-c2cccc(C(F)(F)F)c2)c(C(=O)N2CCNCC2)nc1C(=O)N1CCC(N2CCCC2)CC1` [Example 61, [5-Methyl-6-(4-pyrrolidin-1-yl-piperidine-1-carbonyl)-3-(3-trifluoromethyl-phenyl)-pyridin-2-yl]-piperazin-1-yl-methanone], 320 nM. For `Cc1cc(-c2cccc(C(F)(F)F)c2)c(Oc2cccnc2)nc1C(=O)N1CCC(N2CCCC2)CC1` [Example 62, [3-Methyl-6-(pyridin-3-yloxy)-5-(3-trifluoromethyl-phenyl)-pyridin-2-yl]-(4-pyrrolidin-1-yl-piperidin-1-yl)-methanone] the value was 69 nM. To `Cc1cc(-c2cccc(C(F)(F)F)c2)c(=O)n(C)c1C(=O)N1CCC(N2CCCC2)CC1` [Example 63, 1,5-Dimethyl-6-(4-pyrrolidin-1-yl-piperidine-1-carbonyl)-3-(3-trifluoromethyl-phenyl)-1H-pyridin-2-one] belongs 32 nM; to `Cc1cc(-c2cccc(C(F)(F)F)c2)c(S)nc1C(=O)N1CCC(N2CCCC2)CC1` [Example 64, [6-Mercapto-3-methyl-5-(3-trifluoromethyl-phenyl)-pyridin-2-yl]-(4-pyrrolidin-1-yl-piperidin-1-yl)-methanone; [3-Methyl-6-thioxo-5-(3-trifluoromethyl-phenyl)-1,6-dihydro-pyridin-2-yl]-(4-pyrrolidin-1-yl-piperidin-1-yl)-methanone (tautomers)], 300 nM; to `Cc1cc(-c2cccc(C(F)(F)F)c2)c2nnnn2c1C(=O)N1CCC(N2CCCC2)CC1` [Example 65, [6-Methyl-8-(3-trifluoromethyl-phenyl)-tetrazolo[1,5-a]pyridin-5-yl]-(4-pyrrolidin-1-yl-piperidin-1-yl)-methanone], 7.6 nM. Take `Cc1cc(-c2cccc(C(F)(F)F)c2)c(OCCO)nc1C(=O)N1CCC(N2CCCC2)CC1` [Example 66, [6-(2-Hydroxy-ethoxy)-3-methyl-5-(3-trifluoromethyl-phenyl)-pyridin-2-yl]-(4-pyrrolidin-1-yl-piperidin-1-yl)-methanone]: the IC50 came out at 200 nM. To `Cc1cc(-c2cc(C(F)(F)F)ccc2F)c[n+]([O-])c1C(=O)N1CCC(N2CCCC2)CC1` [Example 67, [5-(2-Fluoro-5-trifluoromethyl-phenyl)-3-methyl-1-oxy-pyridin-2-yl]-(4-pyrrolidin-1-yl-piperidin-1-yl)-methanone] belongs 59 nM.
